Key:
Test in all cases: Weeding effect in post-emergence stage
Format in all cases: in vivo
Settings in all cases: active ingredient 2000 g/ha, 3 weeks after application, fresh weight control rate
Chenopodium album = tested on: Chenopodium album
In short: (§1)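 Weeds sown in soil-filled pots under 0.5-2 cm cover were grown in a greenhouse and sprayed at the 2-3 leaf stage, 2 weeks after sowing. Compounds in acetone with Tween 80 and 1.5 liter/ha methyl oleate concentrate were applied at 2000, 1000, 500, 250 or 125 g/ha. Fresh weight control rate was scored after 3 weeks.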

Abutilon theophrasti = tested on: Abutilon theophrasti
In short: as §1

[1] = tested on: Amaranthus retroflexus L.
In short: as §1

Descurainia sophia = tested on: Descurainia sophia
In short: as §1

Structure (SMILES)	Weeding effect, activity level (growth control rate), Chenopodium album (Chenopodium album)	Weeding effect, activity level (growth control rate), Abutilon theophrasti (Abutilon theophrasti)	Weeding effect, activity level (growth control rate), Amaranthus retroflexus L. [1]	Weeding effect, activity level (growth control rate), Descurainia sophia (Descurainia sophia)
CSc1c(C(=O)Nc2nnnn2C)ccnc1-c1ccc(C(N)=O)cc1 [Compound 1-2053]	5 (Level 5: growth control rate is above 85%)	5 (Level 5: growth control rate is above 85%)	5 (Level 5: growth control rate is above 85%)	5 (Level 5: growth control rate is above 85%)
Cn1nnnc1NC(=O)c1ccnc(-c2ccccc2Oc2ccccc2)c1Cl [Compound 1-57]	5 (Level 5: growth control rate is above 85%)	5 (Level 5: growth control rate is above 85%)	5 (Level 5: growth control rate is above 85%)	5 (Level 5: growth control rate is above 85%)
Cn1nnnc1NC(=O)c1ccnc(-c2ccnc(Cl)c2Cl)c1Cl [Compound 1-152]	5 (Level 5: growth control rate is above 85%)	5 (Level 5: growth control rate is above 85%)	5 (Level 5: growth control rate is above 85%)	5 (Level 5: growth control rate is above 85%)
Cn1nnnc1NC(=O)c1ccnc(-c2ccc(S(C)(=O)=O)cc2)c1Cl [Compound 1-45]	5 (Level 5: growth control rate is above 85%)	5 (Level 5: growth control rate is above 85%)	5 (Level 5: growth control rate is above 85%)	5 (Level 5: growth control rate is above 85%)
Cn1nnnc1NC(=O)c1ccnc(-c2ccccc2O)c1Cl [Compound 1-34]	5 (Level 5: growth control rate is above 85%)	5 (Level 5: growth control rate is above 85%)	5 (Level 5: growth control rate is above 85%)	5 (Level 5: growth control rate is above 85%)
COC(=O)c1ccc(-c2nccc(C(=O)Nc3nnnn3C)c2Cl)cc1 [Compound 1-40]	5 (Level 5: growth control rate is above 85%)	5 (Level 5: growth control rate is above 85%)	5 (Level 5: growth control rate is above 85%)	5 (Level 5: growth control rate is above 85%)
Cc1ccc(-c2nccc(C(=O)Nc3nnnn3C)c2Cl)c(C)c1 [Compound 1-59]	5 (Level 5: growth control rate is above 85%)	5 (Level 5: growth control rate is above 85%)	5 (Level 5: growth control rate is above 85%)	5 (Level 5: growth control rate is above 85%)
Cn1nnnc1NC(=O)c1ccnc(-c2cc(Br)ccc2Br)c1Cl [Compound 1-96]	5 (Level 5: growth control rate is above 85%)	5 (Level 5: growth control rate is above 85%)	5 (Level 5: growth control rate is above 85%)	5 (Level 5: growth control rate is above 85%)
Cc1ccccc1-c1nccc(C(=O)Nc2nnnn2C)c1Cl [Compound 1-9]	5 (Level 5: growth control rate is above 85%)	5 (Level 5: growth control rate is above 85%)	5 (Level 5: growth control rate is above 85%)	5 (Level 5: growth control rate is above 85%)
Cc1c(-c2nccc(C(=O)Nc3nnnn3C)c2Cl)cnn1C [Compound 1-170]	5 (Level 5: growth control rate is above 85%)	5 (Level 5: growth control rate is above 85%)	5 (Level 5: growth control rate is above 85%)	5 (Level 5: growth control rate is above 85%)
Cn1nnnc1NC(=O)c1ccnc(-c2ncc(F)cn2)c1Cl [Compound 1-164]	5 (Level 5: growth control rate is above 85%)	5 (Level 5: growth control rate is above 85%)	5 (Level 5: growth control rate is above 85%)	5 (Level 5: growth control rate is above 85%)
Cn1nnnc1NC(=O)c1ccnc(-c2ccccc2CBr)c1Cl [Compound 1-23]	5 (Level 5: growth control rate is above 85%)	5 (Level 5: growth control rate is above 85%)	5 (Level 5: growth control rate is above 85%)	5 (Level 5: growth control rate is above 85%)
Cn1nnnc1NC(=O)c1ccnc(-c2ccc(C(F)(F)F)cc2C(F)(F)F)c1Cl [Compound 1-76]	5 (Level 5: growth control rate is above 85%)	5 (Level 5: growth control rate is above 85%)	5 (Level 5: growth control rate is above 85%)	5 (Level 5: growth control rate is above 85%)
Cn1nnnc1NC(=O)c1ccnc(-c2ccc(Cl)c(F)c2)c1Cl [Compound 1-91]	5 (Level 5: growth control rate is above 85%)	5 (Level 5: growth control rate is above 85%)	5 (Level 5: growth control rate is above 85%)	5 (Level 5: growth control rate is above 85%)
Cn1nnnc1NC(=O)c1ccnc(-c2ccccc2[N+](=O)[O-])c1Cl [Compound 1-38]	5 (Level 5: growth control rate is above 85%)	5 (Level 5: growth control rate is above 85%)	5 (Level 5: growth control rate is above 85%)	5 (Level 5: growth control rate is above 85%)
Cn1nnnc1NC(=O)c1ccnc(-c2cccc(Br)c2)c1Cl [Compound 1-21]	5 (Level 5: growth control rate is above 85%)	5 (Level 5: growth control rate is above 85%)	5 (Level 5: growth control rate is above 85%)	5 (Level 5: growth control rate is above 85%)
Cn1nnnc1NC(=O)c1ccnc(-c2ccc(Cl)s2)c1Cl [Compound 1-189]	5 (Level 5: growth control rate is above 85%)	5 (Level 5: growth control rate is above 85%)	5 (Level 5: growth control rate is above 85%)	5 (Level 5: growth control rate is above 85%)
Cn1nnnc1NC(=O)c1ccnc(C2=CCN(C(=O)OC(C)(C)C)CC2)c1Cl [Compound 1-6]	5 (Level 5: growth control rate is above 85%)	5 (Level 5: growth control rate is above 85%)	5 (Level 5: growth control rate is above 85%)	5 (Level 5: growth control rate is above 85%)
Cn1nnnc1NC(=O)c1ccnc(-c2cccnc2)c1Cl [Compound 1-124]	5 (Level 5: growth control rate is above 85%)	5 (Level 5: growth control rate is above 85%)	5 (Level 5: growth control rate is above 85%)	5 (Level 5: growth control rate is above 85%)
Cn1nnnc1NC(=O)c1ccnc(-c2ccc(C#N)cc2)c1F [Compound 1-2016]	5 (Level 5: growth control rate is above 85%)	5 (Level 5: growth control rate is above 85%)	5 (Level 5: growth control rate is above 85%)	5 (Level 5: growth control rate is above 85%)
Cn1nnnc1NC(=O)c1ccnc(-c2ccc3ccccc3c2)c1Cl [Compound 1-112]	5 (Level 5: growth control rate is above 85%)	5 (Level 5: growth control rate is above 85%)	5 (Level 5: growth control rate is above 85%)	5 (Level 5: growth control rate is above 85%)
Cn1nnnc1NC(=O)c1ccnc(-c2ccc(F)cc2)c1C#N [Compound 1-213]	5 (Level 5: growth control rate is above 85%)	5 (Level 5: growth control rate is above 85%)	5 (Level 5: growth control rate is above 85%)	5 (Level 5: growth control rate is above 85%)
